What was measured:
MCF7 = assay: Cytotoxicity against human MCF7 cells assessed as decrease in cell viability after 48 hrs by MTT assay; format: functional, cell-based; settings: MCF7, 48 h
HepG2 [1] = assay: Cytotoxicity against human HepG2 cells assessed as decrease in cell viability after 48 hrs by MTT assay; format: functional, cell-based; settings: HepG2, 48 h
SMMC-7721 = assay: Cytotoxicity against human SMMC7721 cells assessed as decrease in cell viability after 48 hrs by MTT assay; format: functional, cell-based; settings: SMMC-7721, 48 h
HepG2 [2] = assay: Induction of apoptosis in human HepG2 cells assessed as necrotic cells at 6.25 uM after 48 hrs using annexin V-FITC/propidium iodide staining by flow cytometry (reference value: 2.39%); format: functional
HepG2 [3] = assay: Induction of apoptosis in human HepG2 cells assessed as late stage apoptotic cells at 6.25 uM after 48 hrs using annexin V-FITC/propidium iodide staining by flow cytometry (reference value: 0.65%); format: functional
HepG2 [4] = assay: Induction of apoptosis in human HepG2 cells assessed as viable cells at 6.25 uM after 48 hrs using annexin V-FITC/propidium iodide staining by flow cytometry (reference value: 86.80%); format: functional; settings: HepG2, 48 h, read-out: Activity
HepG2 [5] = assay: Induction of apoptosis in human HepG2 cells assessed as early stage apoptotic cells at 6.25 uM after 48 hrs using annexin V-FITC/propidium iodide staining by flow cytometry (reference value: 10.15%); format: functional
HepG2 [6] = assay: Induction of apoptosis in human HepG2 cells assessed as necrotic cells at 12.50 uM after 48 hrs using annexin V-FITC/propidium iodide staining by flow cytometry (reference value: 2.39%); format: functional
HepG2 [7] = assay: Induction of apoptosis in human HepG2 cells assessed as late stage apoptotic cells at 12.50 uM after 48 hrs using annexin V-FITC/propidium iodide staining by flow cytometry (reference value: 0.65%); format: functional
HepG2 [8] = assay: Induction of apoptosis in human HepG2 cells assessed as viable cells at 12.50 uM after 48 hrs using annexin V-FITC/propidium iodide staining by flow cytometry (reference value: 86.80%); format: functional; settings: HepG2, 48 h, read-out: Activity
HepG2 [9] = assay: Induction of apoptosis in human HepG2 cells assessed as early stage apoptotic cells at 12.50 uM after 48 hrs using annexin V-FITC/propidium iodide staining by flow cytometry (reference value: 10.15%); format: functional
HepG2 [10] = assay: Induction of apoptosis in human HepG2 cells assessed as necrotic cells at 25 uM after 48 hrs using annexin V-FITC/propidium iodide staining by flow cytometry (reference value: 2.39%); format: functional
HepG2 [11] = assay: Induction of apoptosis in human HepG2 cells assessed as late stage apoptotic cells at 25 uM after 48 hrs using annexin V-FITC/propidium iodide staining by flow cytometry (reference value: 0.65%); format: functional
HepG2 [12] = assay: Induction of apoptosis in human HepG2 cells assessed as viable cells at 25 uM after 48 hrs using annexin V-FITC/propidium iodide staining by flow cytometry (reference value: 86.80%); format: functional; settings: HepG2, 48 h, read-out: Activity
HepG2 [13] = assay: Induction of apoptosis in human HepG2 cells assessed as early stage apoptotic cells at 25 uM after 48 hrs using annexin V-FITC/propidium iodide staining by flow cytometry (reference value: 10.15%); format: functional
HepG2 [14] = assay: Induction of apoptosis in human HepG2 cells assessed as apoptotic rate at 6.25 uM after 48 hrs using annexin V-FITC/propidium iodide staining by flow cytometry (reference value: 10.80%); format: functional
HepG2 [15] = assay: Induction of apoptosis in human HepG2 cells assessed as apoptotic rate at 12.50 uM after 48 hrs using annexin V-FITC/propidium iodide staining by flow cytometry (reference value: 10.80%); format: functional
HepG2 [16] = assay: Induction of apoptosis in human HepG2 cells assessed as apoptotic rate at 25 uM after 48 hrs using annexin V-FITC/propidium iodide staining by flow cytometry (reference value: 10.80%); format: functional

Row | SMILES | IC50 (MCF7) | IC50 (HepG2 [1]) | IC50 (SMMC-7721) | further results
1 | COC(=O)[C@@]12C[C@@H]3C[C@H]([C@H](C)O)[C@H]1NCCc1c2n(c2ccccc12)C3 | > 100 µM | > 100 µM | > 100 µM | 
2 | CC[C@H]1C[C@@H]2Cn3c4c(c5ccc(OC)cc53)CCN[C@H]1[C@@]4(C(=O)OC)C2 | > 100 µM | > 100 µM | > 100 µM | 
3 | CC[C@]1(C(=O)O)C[C@@H](C(=O)OC)C2=Nc3cc(OC)ccc3[C@@]23CCN(CCO)[C@H]13 | > 100 µM | > 100 µM | > 100 µM | 
4 | C/C=C1/CN(C)[C@H]2Cc3c([nH]c4ccccc34)[C@H](c3cc4c(cc3OC)c3c5n4C[C@H]4C[C@@H](CC)[C@@H](NCC3)[C@@]5(C(=O)OC)C4)C[C@H]1[C@]2(CO)C(=O)OC | 11 µM | 11.3 µM | 15 µM | 
5 | CC[C@H]1C[C@H]2C[C@@]3(C(=O)OC)c4c(c5ccc(OC)cc5n4C2=O)CCN[C@H]13 | > 100 µM | > 100 µM | > 100 µM | 
6 | COC(=O)[C@@]12C[C@@H]3C[C@H]([C@H](C)O)[C@H]1NCCc1c2n(c2cc(OC)ccc12)C3 | > 100 µM | > 100 µM | > 100 µM | 
7 | CC[C@]1(C(=O)O)C[C@@H](C(=O)OC)C2=Nc3cc(OC)ccc3[C@@]23CCN(CCO)[C@@H]13 | > 100 µM | > 100 µM | > 100 µM | 
8 | C/C=C1/CN(C)[C@H]2Cc3c([nH]c4ccccc34)[C@H](c3c(OC)ccc4c5c([nH]c34)[C@@]3(C(=O)OC)C[C@H]4C[C@H](CC)[C@@H]3N(CC5)C4)C[C@H]1[C@]2(CO)C(=O)OC | 14.6 µM | 13.1 µM | 12.6 µM | 
9 | CC[C@@]12C[C@@H](C(=O)OC)C3=Nc4cc(OC)ccc4[C@@]34CCN(CCOC1=O)[C@@H]24 | > 100 µM | > 100 µM | > 100 µM | 
10 | C/C=C1/CN(C)[C@H]2Cc3c([nH]c4ccccc34)[C@H](c3cc4c5c6n(c4cc3OC)C[C@H]3C[C@@H](CC)[C@@H](NCC5)[C@@]6(C(=O)OC)C3)C[C@H]1[C@]2(CO)C(=O)OC | 8.54 µM | 3.31 µM | 6.76 µM | Activity (HepG2 [2]): 3.17%; Activity (HepG2 [3]): 1.63%; viability at 6.25 µM (HepG2 [4]): 85%; Activity (HepG2 [5]): 10.19%; Activity (HepG2 [6]): 7.85%; Activity (HepG2 [7]): 8.47%; viability at 12.5 µM (HepG2 [8]): 72.4%; Activity (HepG2 [9]): 11.3%; Activity (HepG2 [10]): 15.59%; Activity (HepG2 [11]): 30.97%; viability at 25 µM (HepG2 [12]): 33.9%; Activity (HepG2 [13]): 19.54%; Activity (HepG2 [14]): 11.82%; Activity (HepG2 [15]): 19.77%; Activity (HepG2 [16]): 50.51%
11 | C/C=C1/CN(C)[C@H]2Cc3c([nH]c4ccccc34)[C@H](c3cc4c5c([nH]c4cc3OC)[C@@]3(C(=O)OC)C[C@H]4C[C@H](CC)[C@H]3N(CC5)C4)C[C@H]1[C@]2(CO)C(=O)OC | 38 µM | 12.8 µM | 4.63 µM | 
12 | CC[C@@]12C[C@@H](C(=O)OC)C3=Nc4cc(OC)ccc4[C@@]34CCN(CCOC1=O)[C@H]24 | > 100 µM | > 100 µM | > 100 µM | 

From ChEMBL document CHEMBL3286395, “Tabercarpamines A-J, apoptosis-inducing indole alkaloids from the leaves of Tabernaemontana corymbosa” (J Nat Prod, 2014)
